The results in this text go back to patent US10828301B2, “2,4-pyrimidinediamine compounds and their uses” (Rigel Pharmaceuticals, Inc, priority 2002, dated 2020).

Holding throughout (assay type): cell-based
The subject of experiment [1] is cultured human mast cells (CHMC). In words: CHMC low cell density IgE activation: tryptase and LTC4 assays. The following applies: Low Density CHMC, anti-IgE activation. Put shortly:
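Cultured human mast cells at low density (1000-1500 per well) rested 1 h at 37° C, then stimulated with anti-IgE for 30 min at 37° C. Supernatant tryptase measured with fluorogenic substrate (30 min, room temperature); LTC4 quantified by ELISA on diluted supernatant.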

For experiment [2] the test system is unchanged. In words: CHMC high cell density IgE activation: degranulation (hexos, tryptase, histamine), leukotriene (LTC4) and cytokine (TNFalpha, IL-13) assays. The following applies: anti-IgE activation. As for the experimental part:
After sensitizing, cells are counted, pelleted (1000 rpm, 5-10 minutes), and resuspended at 1-2×10^6 cells/ml in MT buffer. Add 100 ul of cell suspension to each well and 100 ul of compound dilutions. The final vehicle concentration is 0.5% DMSO. Incubate at 37° C. (5% CO2) for 1 hour. After 1 hour of compound treatment, stimulate cells with 6× anti-IgE. Mix wells with the cells and allow plates to incubate at 37° C. (5% CO2) for one hour. After 1 hour incubation, pellet cells (10 minutes, 1000 RPM) and collect 200 ul per well of the supernatant, being careful not to disturb pellet. Place the supernatant plate on ice. During the 7-hour step (see next) perform tryptase assay on supernatant that had been diluted 1:500. Resuspend cell pellet in 240 ul of CM media containing 0.5% DMSO and corresponding concentration of compound. Incubate CHMC cells for 7 hours at 37° C. (5% CO2). After incubation, pellet cells (1000 RPM, 10 minutes) and collect 225 ul per well and place in −80° C. until ready to perform ELISAS. ELISAS are performed on appropriately diluted samples (determined empirically for each donor cell population so that the sample measurement falls within the standard curve) following the supplier's instructions.

Experiment [3] shares this test system. In words: CHMC low cell density ionomycin activation: tryptase assay. The following applies: Low Density CHMC, ionomycin activation, tryptase readout, read-out: CHMC Ionomycin Tryptase.
Where [4] appears, read: Homo sapiens, Mast cell, LTC4 readout, read-out: CHMC anti-IgE LTC4.
The mark [5] stands for this setting: Homo sapiens, Mast cell, tryptase readout, read-out: CHMC anti-IgE Tryptase.
The mark [6] stands for this setting: LTC4, read-out: CHMC high density LTC4.
The mark [7] stands for this setting: TNF-alpha, read-out: CHMC high density TNF-alpha.
Where [8] appears, read: hexosaminidase release, read-out: CHMC high density hexos.
The mark [9] stands for this setting: histamine release, read-out: CHMC high density histamine.
Setting [10] is: tryptase release, read-out: CHMC high density tryptase.
Setting [11] is: IL-13, read-out: CHMC high density IL-13.

In the case of `CNC(=O)c1cc2cc(Nc3ncc(F)c(Nc4ccc(C(C)(C)C)cc4)n3)ccc2o1` [Compound R926494, N4-(4-tert-Butylphenyl)-5-fluoro-N2-[2-(N-methylamino)carbonylbenzofuran-5-yl]-2,4-pyrimidinediamine], the IC50 in experiment [1] (setting [4]) was 0.078 µM; in experiment [1] (setting [5]), 0.313 µM; in experiment [2] (setting [6]), 0.326 µM; in experiment [2] (setting [7]) it was > 10 µM; in experiment [2] (setting [8]), 0.64 µM; in experiment [2] (setting [9]), > 10 µM. Besides, the IC50 in experiment [2] (setting [10]) is > 2 µM; in experiment [3] (Homo sapiens, Mast cell), > 10 µM.
Regarding `CNC(=O)c1cc2cc(Nc3ncc(F)c(Nc4ccc5c(c4)OCCO5)n3)ccc2o1` [Compound R926496, N4-(3,4-Ethylenedioxyphenyl)-5-fluoro-N2-[2-(N-methylamino)carbonylbenzofuran-5-yl]-2,4-pyrimidinediamine], the IC50 in experiment [1] (setting [5]) was found to be 0.571 µM; in experiment [2] (setting [6]), 0.414 µM; in experiment [2] (setting [7]), 0.622 µM; in experiment [2] (setting [8]), 0.429 µM; in experiment [2] (setting [9]) it was 0.809 µM; in experiment [2] (setting [10]), 0.533 µM. In addition, in experiment [3] (Homo sapiens, Mast cell), the IC50 was > 10 µM.
As to `COC(=O)c1cc2cc(Nc3ncc(F)c(Nc4cccc(O)c4)n3)ccc2o1` [Compound R926614, 5-Fluoro-N4-(3-hydroxyphenyl)-N2-(2-methoxycarbonylbenzofuran-5-yl)-2,4-pyrimidinediamine], the IC50 in experiment [1] (setting [5]) was 0.228 µM; in experiment [2] (setting [11]), 6.44 µM; in experiment [2] (setting [7]), > 10 µM; in experiment [2] (setting [8]), > 10 µM; in experiment [2] (setting [10]) it was > 10 µM; in experiment [3] (Homo sapiens, Mast cell) it was > 10 µM.
With `OCc1cc2cc(Nc3ncc(F)c(Nc4cccc(O)c4)n3)ccc2[nH]1` [Compound R926700, 5-Fluoro-N4-(3-hydroxyphenyl)-N2-[2-(hydroxymethyl)-(1H)-indol-5-yl]-2,4-pyrimidinediamine], the IC50 in experiment [2] (setting [11]) was 2.05 µM; in experiment [2] (setting [6]), < 1.1 µM; in experiment [2] (setting [7]) it was < 1.1 µM; in experiment [2] (setting [8]) it was < 1.1 µM; in experiment [2] (setting [9]) it was < 1.1 µM; in experiment [2] (setting [10]), < 1.1 µM. The IC50 in experiment [3] (Homo sapiens, Mast cell) is > 10 µM.
As to `COC(=O)c1cc2cc(Nc3ncc(F)c(Nc4ccc(OC(C)C)cc4)n3)ccc2o1` [Compound R926704, 5-Fluoro-N2-(2-methoxycarbonylbenzofuran-5-yl)-N4-(4-isopropoxyphenyl)-2,4-pyrimidinediamine], the IC50 in experiment [1] (setting [5]) was 0.564 µM; in experiment [2] (setting [6]), > 10 µM; in experiment [2] (setting [7]), > 10 µM; in experiment [2] (setting [8]) it was > 2 µM; in experiment [2] (setting [9]), > 10 µM; in experiment [2] (setting [10]), > 10 µM. Moreover, the IC50 in experiment [3] (Homo sapiens, Mast cell) is > 10 µM.
In the case of `CC(C)Oc1ccc(Nc2nc(Nc3ccc4oc(CO)cc4c3)ncc2F)cc1` [Compound R926705, 5-Fluoro-N2-[2-(hydroxymethyl)benzofuran-5-yl]-N4-[4-(isopropoxy)phenyl]-2,4-pyrimidinediamine], the IC50 is 0.533 µM in experiment [1] (setting [4]); 0.263 µM in experiment [1] (setting [5]); 0.494 µM in experiment [2] (setting [6]); > 10 µM in experiment [2] (setting [7]); 1.01 µM in experiment [2] (setting [8]); 0.641 µM in experiment [2] (setting [9]). Besides, the IC50 in experiment [2] (setting [10]) was 1.26 µM; in experiment [3] (Homo sapiens, Mast cell) it was > 10 µM.
For `CNc1ncc(F)c(Nc2ccc3c(c2)OCCO3)n1` [Compound R950189], the IC50 in experiment [1] (tryptase readout, read-out: CHMC anti-IgE Tryptase) was 10 µM; in experiment [3], > 10 µM.
For the molecule `Fc1cnc(N=Cc2ccoc2)nc1Nc1ccc2c(c1)OCCO2` [Compound R950203, N4-(3,4-Ethylenedioxyphenyl)-N2-(3-furanylmethylene)-5-fluoro-2,4-pyrimidinediamine], the IC50 is 9.04 µM in experiment [1] (setting [5]) and > 10 µM in experiment [3] (Homo sapiens, Mast cell).
For the molecule `COc1ccc(OCCNc2ncc(F)c(Nc3ccc4c(c3)OCCO4)n2)cc1` [Compound R950204, N4-(3,4-Ethylenedioxyphenyl)-5-fluoro-N2-[(4-methoxyphenyloxy)ethyl]-2,4-pyrimidinediamine], the IC50 in experiment [1] (setting [5]) is 6.29 µM; in experiment [3] (Homo sapiens, Mast cell), > 10 µM.
On to `Fc1cnc(NCc2ccc3c(c2)CCO3)nc1Nc1ccc2c(c1)OCCO2` [Compound R950205, N2-[2,3-Dihydrobenzo[b]furan-5-ylmethyl]-N4-(3,4-ethylenedioxyphenyl)-5-fluoro-2,4-pyrimidinediamine], for which the IC50 was 9 µM in experiment [1] (setting [5]) and > 10 µM in experiment [3] (Homo sapiens, Mast cell).
`Fc1cnc(NCC2COc3ccccc3O2)nc1Nc1ccc2c(c1)OCCO2` (centres unmarked) [Compound R950206, N2-(2,3-Dihydro-1,4-benzodioxin-2-ylmethyl)-N4-(3,4-ethylenedioxyphenyl)-5-fluoro-2,4-pyrimidinediamine]: the IC50 in experiment [1] (setting [5]) was 3.66 µM; in experiment [3] (Homo sapiens, Mast cell), > 10 µM.
Turning to `OCCN(CCO)c1cccc(Nc2ncc(F)c(Nc3ccc4c(c3)OCCO4)n2)c1` [Compound R950209, N2-[3-Bis(hydroxyethyl)aminophenyl]-N4-(3,4-ethylenedioxyphenyl)-5-fluoro-2,4-pyrimidinediamine], the IC50 in experiment [1] (setting [5]) was 0.748 µM; in experiment [3] (Homo sapiens, Mast cell) it was > 10 µM.
As for `Oc1cccc(Nc2nc(N=Cc3ccoc3)ncc2F)c1` [Compound R950210, N2-(3-Furylmethylene)-5-fluoro-N4-(3-hydroxyphenyl)-2,4-pyrimidinediamine], the IC50 in experiment [1] (setting [5]) was 10 µM; in experiment [3] (Homo sapiens, Mast cell) it was > 10 µM.
`COc1ccc(OCCNNc2ncc(F)c(Nc3cccc(O)c3)n2)cc1` [Compound R950211, 5-Fluoro-N4-(3-hydroxyphenyl)-N2-(4-methoxyphenyloxyethyleneamino)-2,4-pyrimidinediamine]: the IC50 was 10 µM in experiment [1] (setting [5]) and > 10 µM in experiment [3] (Homo sapiens, Mast cell).
On to `Oc1cccc(Nc2nc(NCc3ccc4c(c3)CCO4)ncc2F)c1` [Compound R950213, N2-[2,3-Dihydrobenzo[b]furan-5-ylmethyl]-5-fluoro-N4-(3-hydroxyphenyl)-2,4-pyrimidinediamine], for which the IC50 in experiment [1] (setting [5]) was > 10 µM; in experiment [3] (Homo sapiens, Mast cell), > 10 µM.
`Oc1cccc(Nc2nc(NCC3COc4ccccc4O3)ncc2F)c1` (centres unmarked) [Compound R950214, N2-(2,3-Dihydro-1,4-benzodioxin-2-ylmethyl)-5-fluoro-N4-(3-hydroxyphenyl)-2,4-pyrimidinediamine]: the IC50 was 10 µM in experiment [1] (setting [5]) and > 10 µM in experiment [3] (Homo sapiens, Mast cell).
For the molecule `CNC(=O)C=Nc1cccc(Nc2ncc(F)c(Nc3cccc(O)c3)n2)c1` [Compound R950217, 5-Fluoro-N4-(3-hydroxyphenyl)-N2-[3-(N-methylamino)carbonylmethyleneaminophenyl]-2,4-pyrimidinediamine], the IC50 in experiment [1] (setting [5]) was 0.34 µM; in experiment [3] (Homo sapiens, Mast cell) it was > 10 µM.
On to `NC(=O)C=Nc1cccc(Nc2ncc(F)c(Nc3cccc(O)c3)n2)c1` [Compound R950219, N2-(3-Aminocarbonylmethyleneaminophenyl)-5-fluoro-N4-(3-hydroxyphenyl)-2,4-pyrimidinediamine], for which the IC50 in experiment [1] (setting [5]) is 0.439 µM; in experiment [3] (Homo sapiens, Mast cell), > 10 µM.
Consider `CN(C)C(=O)C=Nc1cccc(Nc2ncc(F)c(Nc3cccc(O)c3)n2)c1` [Compound R950220, N2-[3-(N,N-Dimethylamino)carbonylmethyleneaminophenyl]-5-fluoro-N4-(3-hydroxyphenyl)-2,4-pyrimidinediamine], for which the IC50 in experiment [1] (setting [5]) was 0.489 µM; in experiment [3] (Homo sapiens, Mast cell), > 10 µM.
For `CNCCNC(=O)C=Nc1cccc(Nc2ncc(F)c(Nc3cccc(O)c3)n2)c1` [Compound R950225, 5-Fluoro-N4-(3-hydroxyphenyl)-N2-[3-[(N-methylamino)ethylamino]carbonylmethyleneaminophenyl]-2,4-pyrimidinediamine], the IC50 in experiment [1] (setting [5]) was 5.28 µM; in experiment [3] (Homo sapiens, Mast cell), > 10 µM.
`Nc1cccc(Nc2ncc(F)c(Nc3cccc(O)c3)n2)c1` [Compound R950227, N2-(3-Aminophenyl)-5-fluoro-N4-(3-hydroxyphenyl)-2,4-pyrimidinediamine]: the IC50 is 1.03 µM in experiment [1] (setting [5]) and > 10 µM in experiment [3] (Homo sapiens, Mast cell).
In the case of `CNC(=O)C=Nc1cccc(Nc2ncc(F)c(Nc3cccc(NCCO)c3)n2)c1` [Compound R950233, 5-Fluoro-N4-[3-(2-hydroxyethylamino)phenyl]-N2-[3-(N-methylamino)carbonylmethyleneaminophenyl]-2,4-pyrimidinediamine], the IC50 in experiment [1] (setting [5]) is 0.98 µM; in experiment [3] (Homo sapiens, Mast cell), > 10 µM.
Take `Nc1cccc(Nc2nc(Nc3ccc4c(c3)N=CCO4)ncc2F)c1` [Compound R950254, N4-(3-Aminophenyl)-N2-(1,4-benzoxazin-6-yl)-5-fluoro-2,4-pyrimidinediamine]: the IC50 was 0.496 µM in experiment [1] (setting [5]) and > 10 µM in experiment [3] (Homo sapiens, Mast cell).
